Source: US20240336565A1, “SOLID FORMS OF OSANETANT” (Acer Therapeutics, Inc., priority 2021, published 2024)
Entries after “also recorded” stand apart in the source; their conditions may differ.

Key:
[1] = Hydration study (stirring in ethanol: water mixtures, XRPD); type: physicochemical
Method: (§1) 20 mg of osanetant p-toluenesulfonic acid Form 1 was stirred in the appropriate ethanol: water mixtures for 24 h at 25° C. Where clear solutions were observed after 1 h at 25° C., 0.5 mL of liquor was removed, and additional solid was added until a slurry was maintained. After 24 h total, the experiments were isolated by centrifugation, and the solids were analyzed by XRPD.
as §1, with “Osanetant benzenesulfonic acid” for “20 mg of osanetant p-toluenesulfonic acid”, “Form 3 (20 mg)” for “Form 1”, “was removed from the Aw 0.257 sample,” for “was removed,”

[2] = Thermodynamic solubility in water and pH buffers
[3] = Long term stability: oxidation (6% H2O2) at 60° C.; type: physicochemical; conditions: 6% H2O2, 60° C., up to 14 days
Method: (§2) Osanetant p-toluenesulfonic acid Form 1 and osanetant benzenesulfonic acid Form 1 were tested for long-term stability across a number of different conditions, as detailed below.
(§3) Oxidation at 60° C.—Osanetant p-toluenesulfonic acid Form 1 and osanetant benzenesulfonic acid Form 1 were prepared at an osanetant content 10 times the normal working concentration then added to HPLC vials containing 6% H2O2 and stored in a darkened oven at 60° C. Samples were diluted to 2 mg/mL for analysis and were taken after T=1, 2, 4, 7, and 14 days storage. […] The purity of the resulting material is described in Table 47: […]

[4] = Disproportionation study (stirring in water, XRPD, pH of liquor); type: physicochemical; conditions: 10 mg in 1 mL of water, 24 h at 25° C.
Method: After 24 h total, a white slurry was observed and was isolated by centrifugation. The solids were analyzed by XRPD. The pH of the filtered liquor was measured at 5.63. […] After 24 h total, a white slurry was observed and was isolated by centrifugation. The solids were analyzed by XRPD. The pH of the filtered liquor was measured (pH=5.09).

[5] = Comparative studies: 7-day stability; type: physicochemical
Method: Osanetant p-toluenesulfonic acid Form 1, osanetant benzene sulfonic acid Form 3, osanetant naphthalene-2-sulfonic acid Form 3, and osanetant phosphoric acid Form 7 were compared. Osanetant phosphoric acid Form 7 was obtained when preparation of osanetant phosphoric acid Form 4 was repeated and found to be not reproducible, and Form 7 was determined to be a mixture of hydrates).
Thus, osanetant benzene sulfonic acid salt Form 1 and osanetant p-toluene sulfonic acid salt Form 1 were identified as advantageous salts.

[6] = Salt screen: XRPD of isolated solids after drying at 40° C. and at 40° C./75% RH; type: physicochemical
Procedure, shortened: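 Amorphous lyophilized osanetant (~20 mg) slurried with 1.05 mol eq. counterion in solvent, thermally cycled 5–40 °C at 0.1 °C/min overnight. Solids isolated by centrifugation and analysed by XRPD, then re-analysed after ~24 h drying at 40 °C and again after ~24 h at 40 °C/75% RH.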

[7] = Long term stability: acid stability (2M HCl) at ambient temperature; type: physicochemical; conditions: 2M HCl, dark, ambient, up to 14 days
Method: as §2
as §3, with “Acid Stability” for “Oxidation”, “Ambient Temperature-Osanetant” for “60° C.—Osanetant”, “2M HCl” for “6% H2O2”, “the dark” for “a darkened oven”, “ambient laboratory conditions.” for “60° C.”, “42:” for “47:”

[8] = Long term stability: base (2M NaOH) at 60° C.; type: physicochemical; conditions: 2M NaOH, 60° C., up to 14 days
Method: as §2
as §3, with “Base” for “Oxidation”, “2M NaOH” for “6% H2O2”, “45:” for “47:”

[9] = Solid form stability observations (scale up / polymorph work: drying, ambient conditions, aqueous media); type: physicochemical
Method: Two anhydrous forms of the osanetant p-toluenesulfonic acid were synthesized. […] Form 6, described below, was a stable anhydrous form, but hydrated in water and aqueous solvent mixtures.
Advantageously, Form 1 (hydrate) and Form 6 (anhydrous) were stable on drying. Form 1 re-hydrated at room temperature and pressure after KF analysis, when it was heated in an oven to remove the water.
The experiment was cooled to 5° C. at a rate of 0.1° C./min and stirred at 5° C. for 18 h. The slurry was isolated be Buchner filtration: 42.5 mm Ø grade 1 Whatman filter paper; fast Filtration (<30 s); the cake was washed with 1 mL of ethyl acetate; the isolated solids were dried at 40° C. under vacuum for 72 h. […]

[10] = Long term stability: thermal stability of solids at 60° C.; type: physicochemical; conditions: solids, darkened oven at 60° C., up to 14 days
Method: as §2
Thermal stability of solids at 60° C.—Osanetant p-toluenesulfonic acid Form 1 and osanetant benzenesulfonic acid Form 1 were stored in a darkened oven at 60° C. in glass vials. Samples were taken after T=1, 2, 4, 7, and 14 days storage. […] The purity of the resulting material is described in Table 41: […]

With CC(=O)N(C)C1(c2ccccc2)CCN(CCC[C@]2(c3ccc(Cl)c(Cl)c3)CCCN(C(=O)c3ccccc3)C2)CC1.Cc1ccc(S(=O)(=O)O)cc1 [osanetant p-toluenesulfonic acid Form 1, (R)-N-(1-(3-(1-benzoyl-3-(3,4-dichlorophenyl)piperidin-3-yl)propyl)-4-phenylpiperidin-4-yl)-N-methylacetamide p-toluenesulfonic acid] the “XRPD form after stirring in ethanol: water mixtures” value ([1]; 24 h at 25° C., all mixtures tested) was “no change in form”, the XRPD ([1]; slurry in ethanol:water 63.6:36.4 % v/v, calc Aw 0.745, 24 h at 25° C.) was “Form 1” and the XRPD ([1]; slurry in ethanol:water 92.9:7.1 % v/v, calc Aw 0.507, 24 h at 25° C.) was “Form 1”. For the same compound, the XRPD ([1]; slurry in ethanol:water 98.4:1.6 % v/v, calc Aw 0.257, 24 h at 25° C.) was “Form 1”, the “Solubility in water and pH buffers” value [2] was “low” and the “degradation on storage (purity)” value [3] was “lack of degradation”. The “XRPD form / disproportionation after stirring in water” value [4] was “no change in form; also recorded: did not disproportionate”, the “pH of the filtered liquor” value [4] was 5.63 and the “impurities on 7-day stability” value ([5]; 80° C.) was “increase in impurities”. For the same compound, the “solid form on 7-day stability” value ([5]; 7 days, elevated temperature where stated) was “form was retained”, the physical stability ([5]; in slurry at various water activity and pH, and at 40° C./75% RH and 80° C.) was “physically stable” and the “XRPD after drying at 40° C./75% RH” value ([6]; after 40° C. drying, dried at 40° C./75% RH for about 24 h, label = form after 40° C. drying) was “retained; also recorded: stable; also recorded: Form 1”. For the same compound, the “XRPD after drying at 40° C.” value ([6]; isolated solids dried at 40° C. for about 24 h, label = wet form) was “retained; also recorded: Form 1”, the “degradation on storage (purity)” value [7] was “lack of degradation” and the “degradation on storage (purity)” value [8] was “lack of degradation”. For the same compound, the “form stability / re-hydration under ambient conditions” value ([9]; ambient conditions / room temperature and pressure) was “re-hydrated”, the dehydration temperature ([9]; dehydrates to Form 5) was “above 85 °C” and the form on drying ([9]; drying (40° C. under vacuum where stated)) was “stable; also recorded: no change”. The “degradation on storage (purity)” value [10] was “lack of degradation”.
